The source of these data is patent publication US8865672B2, “Prevention of tissue ischemia and related methods” (The United States of America, as represented by the …, priority 2006, dated 2014).

For data set [1], the system named is skeletal muscle blood oxygenation in mice. The experiment in a line: BOLD MRI of hindlimb muscle after NO challenge. It is filed as in vivo, mouse. The settings on record: for magnitude of increased BOLD MRI signal: DEA/NO 100 nmol/g intrarectal. As to the method: MRI images were acquired using a Bruker Biospin 4.7 T scanner and isoflurane anesthesia. Muscle tissue scanned was at rest, so alterations in oxygenation reflected changes in perfusion rather than in oxygen consumption (Krishna et al., Ilar J 42:209-218, 2001; Watterson et al., Cell Signal 17:289-298, 2005). MR measurements were started after the mouse's body temperature reached 37° C. Prior to the experiments, gradient echo based T1 sequence was used to determine the target slice location. A series of T2* weighted gradient echo blood oxygenation level dependent (BOLD) image data sets at transverse to the midpoint of the femur were repeatedly acquired for 30 min to monitor temporal changes in blood oxygenation and blood flow. DEA/NO (100 nmol/g body weight) was injected with saline via the rectal cannula 5.0 min after starting the scan. Imaging parameters used were: TR=450 ms, Flip angle=45, Nex=1, slice thickness=2 mm, matrix size=64×64, total imaging time for the series was 29 min.

The target in another data set is T1, cGK-I (Homo sapiens, UniProt Q13976).
T1 construct: endogenous in cells; host or cells: washed human platelets, treated intact, then lysed
T1 sequence (Q13976 1-686 isoform Q13976-2): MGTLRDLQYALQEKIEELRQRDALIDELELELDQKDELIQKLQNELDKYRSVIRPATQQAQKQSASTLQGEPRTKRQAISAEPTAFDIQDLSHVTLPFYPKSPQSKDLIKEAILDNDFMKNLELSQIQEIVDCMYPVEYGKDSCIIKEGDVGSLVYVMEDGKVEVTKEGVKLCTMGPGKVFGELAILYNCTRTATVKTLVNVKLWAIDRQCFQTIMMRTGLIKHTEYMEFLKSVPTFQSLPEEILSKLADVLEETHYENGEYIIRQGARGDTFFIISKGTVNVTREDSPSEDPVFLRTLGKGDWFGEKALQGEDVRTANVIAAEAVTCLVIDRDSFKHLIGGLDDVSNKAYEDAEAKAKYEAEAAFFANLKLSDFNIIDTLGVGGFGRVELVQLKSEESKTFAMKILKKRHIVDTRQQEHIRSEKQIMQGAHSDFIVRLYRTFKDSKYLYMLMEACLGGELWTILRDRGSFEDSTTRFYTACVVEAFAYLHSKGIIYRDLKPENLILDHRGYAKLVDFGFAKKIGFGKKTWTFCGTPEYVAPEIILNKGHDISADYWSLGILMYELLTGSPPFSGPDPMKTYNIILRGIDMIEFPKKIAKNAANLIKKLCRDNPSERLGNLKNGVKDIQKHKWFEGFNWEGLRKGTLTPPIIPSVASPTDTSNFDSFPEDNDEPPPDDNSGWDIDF
The experiment in a line: cGK in vitro kinase assay of platelet lysates. It counts as biochemical. The settings on record: activation via sGC using DEA/NO in intact platelets. As to the method: Platelets were washed as described above and resuspended in Tyrode's buffer (3×10^8 platelets/mL). Platelets were preincubated with TSP1 (2.2 nM) or Rp-8-pCPT-cGMP for 15 minutes prior to treatment with 8-Br-cGMP (100 μM) or NO (DEA/NO 10 μM) for 2 minutes. Treatment was stopped by placing the platelets on ice. Immediately following treatment, platelets were pelleted by centrifugation at 13,000×g at 4° C. for 15 seconds and resuspended in a lysis buffer containing 10 mM HEPES (pH 7.4), 1 mM EDTA, 1 mM 3-Isobutyl-1-methylxanthine, 125 mM KCl, 1 mM phenylmethysulfonylfluoride, 1 μg/ml aprotinin, and 1 μg/ml leupeptin. Resuspended platelets were sonicated on ice 3 times for 10 seconds each before centrifugation at 13,000×g for 5 minutes at 4° C. 100 μg lysate from each sample was incubated at 25° C. for 20 minutes with kinase buffer (150 μM Arg-Lys-Arg-Ser-Arg-Ala-Glu (SEQ ID NO: 17) peptide substrate (Bachem, King of Prussia, Pa.)), 10 mM HEPES pH 7.4, 35 mM β-glycerophosphate, 4 mM MgCl2, 5 μM Rp-8 pCPT-cAMPS, 0.5 mM EDTA, […] [γ-32P]ATPS (Sigma-Aldrich, St. Louis, Mo.)). Kinase assay reactions were terminated by spotting 50 μL of reaction mixture onto nitrocellulose. Nitrocellulose spots were washed 5 times each with 100 μL of 0.5% phosphoric acid before analysis with a scintillation counter.

The test system of data set [2] is blood pressure and pulse in mice. The experiment in a line: Blood pressure and pulse measurements (tail cuff). It counts as in vivo, mouse. The settings on record: for blood pressure response: i.p.; for mean pulse: after i.p. challenge. As to the method: Mean systolic, diastolic and arterial blood pressure (BP) and mean pulse was measured in age and sex matched mice using a computerized tail cuff system (Hatteras Systems, MC4000 Blood Pressure Analysis System, Cary, N.C.). The mice were allowed to acclimate to the apparatus for 5 min prior to the start of measurement. Each animal underwent a cycle of 10 preliminary and 50 experimental pressures measurements for data acquisition and data calculation. Animals were acclimated to the measuring system and protocol for 4 days with treatment with data acquisition being performed on the 5th day. Pressures recordings were performed at the same time each day. Data was accepted if the mouse had valid readings for at least 20 consecutive pulse beats. All studies were performed at the same hour each day.
Respirations were monitored continuously monitored by direct observation of the animal. Body core temperature was measured via rectal probe. Temperature control was performed using a water-circulating warming surface and heating lamp. Following a 15 minute period of stabilization mean systolic, diastolic and arterial blood pressure and mean pulse measurements were determined.

The subject of data set [3] is cutaneous perfusion in mice. It is filed as in vivo, mouse. How it is done: Skin blood flow was measured using laser Doppler imaging (MoorLD1-2λ, Moor Instruments, Devon, England). Briefly, animals were placed in a prone position on a heating pad, and anesthesia was provided by 2% inhalation isoflurane in a 50:50 mixture of oxygen to room air. Core temperature was monitored by rectal probe and was further controlled with a heat lamp. The hair of the dorsum of the animals was clipped and depilated with Nare™ and a template with a 1 cm^2 area used to trace a region of interest (ROI). After equilibration to the experimental set-up analysis of cutaneous blood flow was obtained. The following instrument settings were used: override distance 21 cm; scan time 4 msec/pixel. Results are expressed as the change percent control from baseline of the ROI.

The test system of data set [4] is human platelets. The data set is described as follows: Thrombin-induced human platelet aggregation. It is filed as cell-based. The settings on record: GGTI-298 preincubation. The method, boiled down:
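Washed human platelets in Tyrode's buffer pH 7.4 (2×10^5/μl) are stirred at 1200 rpm and 37 °C, and optical aggregation is followed for 5 min; under static conditions, A400 is tracked for 5 min instead. TSP1 agents or 1 μM peptide C6d are pre-incubated for 15 min before thrombin ± DEA/NO (10 μM).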

In data set [5] the test system is human platelets. The experiment in a line: Human platelet adhesion assay. It is filed as cell-based. The settings on record: fibrinogen vs collagen, 10 μM. As to the method: Bacteriological Petri dishes (35×10 mm, Becton Dickinson Labware) were pre-coated with collagen (3 μg/ml) or fibrinogen (15 μg/mL) overnight. Following aspiration of non-adherent matrix, dishes were blocked with 1% BSA. Fresh platelets were washed and suspended in Tyrode's buffer and allowed to adhere for 30 minutes. Plates were washed with PBS, fixed with 0.5% glutaraldehyde and stained with 0.02% toluidine blue. Adherent platelets were counted microscopically. In some experiments platelets were pre-incubated with the Rap1 geranylgeranyltransferase inhibitor GGTI-298 (10 μM) for 30 minutes prior to initiating adhesion.

The test system of another data set is Rap1. The data set is described as follows: Rap1 pulldown assay in platelets. It is filed as cell-based, human. As to conditions: thrombin. How it is done:
Platelets were diluted to 5×10^8 platelets/mL in Tyrode's buffer and treated with various reagents for the indicated times. Immediately following treatment, platelets were pelleted at 13,000 g for 30 seconds at 4° C. and resuspended in ice-cold lysis buffer containing 20 mM HEPES (pH 7.5), 100 mM NaCl, 10 mM EGTA, 20 mM MgCl2, 8 mM α-glycerophosphate, 1% Triton X-100, 1 mM phenylmethylsulfonylfluoride, 40 mM NaF, 1 mM Na3VO4, 10 μg/mL aprotinin, and 10 μg/mL leupeptin. Lysates were centrifuged at 13,000 g for 5 minutes at 4° C. and the supernatants were incubated for 15 minutes on a tumbler at 4° C. with glutathione Sepharose 4B beads (Amersham) prebound with a GST-Ral GDS RBD fusion protein (kind gift of J. Silvio Gutkind, NIH, Bethesda, Md.). Bead complexes were washed by centrifugation at 6,000 g for 30 seconds at 4° C. followed by resuspension in 0.5 mL lysis buffer; 2 washes were performed for each sample. After the second wash, beads were resuspended in an equal volume of 2×SDS sample buffer and stored at −20° C. For Western analysis, bead-bound proteins in sample buffer were boiled for 10 minutes and subjected to electrophoresis on NuPAGE 10% Bis-Tris gels (Invitrogen, Carlsbad, Calif.), transferred to Immobilon-P PVDF membranes (Millipore, Billerica, Mass.), and blotted with rabbit polyclonal anti-Rapt (sc-65; Santa Cruz Biotechnology, Santa Cruz, Calif.).

Structures can show the parent of a compound that is named as a salt.

As to `CCN(CC)/[N+]([O-])=N/O.CCNCC` [DEA/NO, diethylamine NONOate], the “magnitude of increased BOLD MRI signal” value in data set [1] (TSP1 null mice) came to 25%; in data set [1] (WT mice) it was 15%. The “decreased BOLD signal” value in data set [1] (TSP null mice) is 14%; in data set [1] (WT mice) it was 11%. In addition, the “32P-incorporation into cGK-I selective peptide” value at cGK-I is given as “strongly induced 32P-incorporation”. For the same compound, the blood pressure response entry in data set [2] (TSP1 null versus wild type) was “significantly greater decreases in blood pressure measurements”; in data set [2] (awake wild type and TSP1-null mice), “significant decreases in systolic, diastolic and mean arterial pressure”. Moreover, the mean pulse entry in data set [2] is “tended to increase modestly”. In addition, the “initial increase in cutaneous perfusion” value in data set [3] (rectal catheter bolus, core temperature 34.5° C.) was “significantly greater in TSP1 and CD47 null mice”.
For `COC(=O)[C@H](CC(C)C)NC(=O)c1ccc(NC[C@@H](N)CS)cc1-c1cccc2ccccc12` [GGTI-298, reference compound], the “platelet aggregation at high shear in the presence of NO” value in the data set with human platelets [4] is recorded as “preferentially delayed platelet aggregation”. Besides, in the data set with human platelets [5], the “thrombin-stimulated adhesion of platelets” value was “selective in adhesion assays for blocking thrombin-stimulated adhesion of platelets on fibrinogen”. In addition, the “Rap1 activation (GTP loading)” value with Rap1 was “inhibits basal and partially inhibits thrombin-stimulated Rap1 activation”.
With `CNC[C@H](O)c1ccc(O)c(O)c1` [epinephrine, Epinephrine hydrochloride], the lethality entry in data set [2] (CD47 null animals, 0.05 μg/animal i.p.) is “fatal”. Also, the mean arterial pressure result is reported as “did not show a significant increase” in data set [2] (TSP1 null animals, 0.05 μg/animal i.p.) and “expected increase in mean arterial pressure” in data set [2] (wild type animals, 0.05 μg/animal i.p.). In addition, the mean pulse result in data set [2] is on record as “moderately increased”. The cutaneous perfusion result in data set [3] (wild type and TSP1 null animals, epinephrine bolus) is “increased cutaneous perfusion”.
As to `C[N+](C)(C)CCCCCC[N+](C)(C)C` [hexamethonium, hexamethonium chloride], the “cutaneous perfusion and survival after autonomic blockade” value in data set [3] (wild type and TSP1 null animals under isoflurane, 30 μg/gram i.v.) was “decreases in cutaneous perfusion and eventual cardiovascular collapse and death”.
